GI50 and TGI data for seven compounds are collected here from PubChem BioAssay (NCI).

Holding throughout (assay): NCI tumour cell line growth inhibition, 48 h
The subject of assay [1] is NCI-H23 lung.
Assay [2] deals with OVCAR-3 ovarian.
Assay [3] relates to OVCAR-5 ovarian.
Assay [4] concerns HOP-92 NSCLC.
Assay [5] deals with SK-MEL-28 melanoma.
The subject of assay [6] is NCI-H522 lung.
Assay [7] has as its system COLO 205 colon.
Assay [8] relates to CAKI-1 renal.
For assay [9], the system named is ACHN renal.
For assay [10], the system named is DU-145 prostate.

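How tested: cells in 96-well plates exposed to compound for 48 hours at five concentrations. GI50 is the concentration that inhibits growth by half. TGI: concentration producing complete growth inhibition.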 A value given as a limit tells only on which side of the number the result lay.

In the case of `COc1ccc(N=Cc2c(O)ccc3c2oc2cc(Cl)c(O)c(Cl)c23)cc1`, the GI50 was 12200 nM in assay [1]; 6910 nM in assay [2]; 17500 nM in [3]; 6.09 µM in assay [4]; 15.9 µM in [5]; 9610 nM in assay [6]. The GI50 in assay [7] was 16000 nM; in [8] it was 4750 nM; in assay [9], 6220 nM; in [10], 18900 nM. Moreover, the TGI is 42.5 µM in assay [1]; 22.3 µM in assay [2]; 38.9 µM in assay [3]; 32.6 µM in assay [4]; 40.4 µM in assay [5]; 28200 nM in assay [6]. In addition, the TGI in [7] is 33.2 µM; in assay [8] it was 28.1 µM; in assay [9], 44.4 µM; in assay [10], 45.9 µM.

For the compound `O=c1cc(-c2ccccc2)oc2ccc(OC/C(=N/O)c3ccccc3)cc12`, the GI50 in [1] was 2400 nM; in assay [2], 1230 nM; in assay [3], 43800 nM; in [4], 25.2 µM; in assay [5] it was 8.38 µM; in assay [6], 2880 nM. Further, the GI50 is 1890 nM in assay [7], 1790 nM in [8] and 1730 nM in [10]. The TGI in assay [1] is over 50 µM; in assay [2], 3.93 µM; in [3], over 50 µM; in [4], over 50 µM; in [5] it was over 50 µM; in [6] it was over 50000 nM. In addition, the results for the TGI in [7], in [8] and in assay [10] were 25.3 µM, 16.2 µM and over 50 µM, respectively.

On to `CC[C@H](NC(=O)[C@H]1CCCCN1C)C(=O)N(C)[C@H](C[C@@H](OC(C)=O)c1nc(C(=O)N[C@@H](Cc2ccccc2)C[C@H](C)C(=O)O)cs1)C(C)C`, for which the GI50 in assay [1] was 7.3 nM; in [2], under 1.43 nM; in [3], 28.8 nM; in [4], 0.00585 µM; in assay [6], 2.84 nM; in assay [7], 3.96 nM. The values for the GI50 in assay [8], in assay [9] and in assay [10] were 6.02 nM, 14.2 nM and 4.25 nM, respectively. In addition, the TGI in assay [1] is over 14.3 µM; in assay [2] it was 0.0286 µM; in assay [3], over 14.3 µM; in assay [4], over 6.56 µM; in [6], 337 nM; in assay [7] it was 0.0499 µM. The TGI in assay [8] is over 14.3 µM; in [9], over 14.3 µM; in assay [10] it was over 4.64 µM.

`COc1ccc(/C=C(/C(=O)N2CCN(c3ccccc3)CC2)c2cc(OC)c(OC)c(OC)c2)cc1N`: the GI50 was 2180 nM in assay [1]; 366 nM in [2]; 569 nM in assay [3]; 3.53 µM in assay [4]; 1.47 µM in assay [5]; 242 nM in assay [6]. The GI50 in [7] was 362 nM; in assay [9] it was 612 nM; in [10], 531 nM. Further, the TGI in assay [1] is over 100 µM; in assay [2] it was over 100 µM; in assay [3] it was over 100 µM; in assay [4], over 100 µM; in assay [5], over 100 µM; in assay [6] it was 910 nM. The TGI in assay [7] is 2.43 µM; in assay [9], over 100 µM; in [10] it was over 100 µM.

Take `NCCCNc1nc2ccccc2c2c(=O)c3cc(F)cc(F)c3sc12`: the GI50 was 1780 nM in assay [1]; 1720 nM in assay [2]; 1600 nM in assay [3]; 1.65 µM in [4]; 1.86 µM in assay [5]; 1920 nM in assay [7]. Besides, the GI50 in assay [8] was 1860 nM; in assay [9] it was 1650 nM; in assay [10] it was 1710 nM. Besides, the TGI in assay [1] was found to be 3.36 µM; in [2], 3.19 µM; in [3], 3.03 µM; in assay [4] it was 12.6 µM; in [5] it was 3.39 µM; in [7], 4.62 µM. For the same compound, the TGI came to 4.18 µM in assay [8], 3.06 µM in assay [9] and 3.19 µM in [10].

For the compound `COC1=CC(c2ccc[nH]2)=N/C1=C\c1[nH]c(C)c(CC(=O)OCc2ccccc2)c1CCC(=O)OCc1ccccc1`, the GI50 in [1] is 546 nM; in assay [2] it was 363 nM; in assay [3] it was 1260 nM; in [4], 0.231 µM; in assay [6], 302 nM; in assay [7], 260 nM. For the same compound, the GI50 is 343 nM in assay [8], 333 nM in assay [9] and 438 nM in assay [10]. In addition, the TGI in assay [1] amounted to 4.45 µM; in [2], 1.46 µM; in [3] it was 6.12 µM; in [4] it was 0.809 µM; in [6], 1850 nM; in [7] it was 1.2 µM. In addition, the TGI in assay [8] was 2.21 µM; in assay [9], 1.02 µM; in assay [10], 12.1 µM.

Regarding `COc1cc(/C=C2\C[C@H]3[C@@H]4CC=C5C[C@@H](O)CC[C@]5(C)[C@H]4CC[C@]3(C)[C@H]2O)ccc1OCCN1CCCC1`, the GI50 in assay [1] was 11500 nM; in [2], 15400 nM; in [3], 8570 nM; in [4], 8.26 µM; in [6], 18000 nM; in [7], 12900 nM. In addition, the GI50 in assay [8] was 10200 nM; in assay [9] it was 8380 nM; in assay [10], 5040 nM. The TGI in assay [1] was 26 µM; in assay [2], 32 µM; in assay [3], 19.8 µM; in assay [4], 17.1 µM; in [6] it was over 50000 nM; in assay [7], over 50 µM. Besides, the TGI in assay [8] was 22.1 µM; in [9], 16.9 µM; in [10], 14.4 µM.
